Data: patent US20130078718A1, “CONVERSION OF VASCULAR ENDOTHELIAL CELLS INTO MULTIPOTENT STEM-LIKE CELLS” (PRESIDENT AND FELLOWS OF HARVARD COLLEGE, priority 2010, published 2013)
“Also recorded” adds a separate entry of the source.

Tests used:
ALK2 = experiment: siRNA knockdown of ALK2 expression (immunoblotting); format: cell-based, human; details: transfected for 24 hours
Procedure: (§1) siRNA gene expression knockdown studies were performed using the TriFECTa RNAi kit (Integrated DNA Technologies) and corresponding protocol. Each 27 mer siRNA duplex was transfected into cells using X-tremeGene siRNA transfection reagent (Roche) following the manufacturer's guidelines. siRNA was synthesized (Integrated DNA Technologies) with the following sequences: ALK2: 5′-[…]-3′ (SEQ ID NO: 51); negative control: 5′-[…]-3′ (SEQ ID NO: 52).
(§2) siRNA gene expression knockdown studies were performed using the TriFECTa RNAi kit (Integrated DNA Technologies) and corresponding protocol. Each 27 mer siRNA duplex was transfected into cells using X-tremeGene siRNA transfection reagent (Roche) following the manufacturer's guidelines. siRNA was synthesized (Integrated DNA Technologies) with the following sequences: […]

[1] = tested on: endothelial cells (HUVEC, HCMEC); experiment: RNA interference: effect of ALK siRNA on TGF-β2- or BMP4-induced EndMT and multipotency; format: cell-based, human
Procedure: Cells were grown in StemPro osteogenic, chondrogenic, or adipogenic culture medium (Invitrogen). Alkaline phosphatase staining was performed using the alkaline phosphatase kit and protocol (Sigma-Aldrich) on cultures grown in osteogenic medium for 7 days to detect osteoblasts. Alizarin Red (Sigma-Aldrich) staining was performed for 30 minutes on cultures grown in osteogenic medium for 21 days to detect matrix calcification. Alcian Blue (Sigma) staining was used to stain chondrocyte proteoglycans for 5 minutes in cultures grown in chondrogenic medium for 14 days. Oil Red O (Sigma-Aldrich) staining was performed for 15 minutes on cultures grown in adipogenic medium for 7 days.
as §1
Cells were grown in StemPro osteogenic, chondrogenic, or adipogenic culture medium (Invitrogen). Alkaline phosphatase staining was performed using the alkaline phosphatase kit and protocol (Sigma-Aldrich) on cultures grown in osteogenic medium for 7 d to detect osteoblasts. Alizarin Red (Sigma-Aldrich) staining was performed for 30 min on cultures grown in osteogenic medium for 21 d to detect matrix calcification. Alcian Blue (Sigma) staining was used to stain chondrocyte proteoglycans for 5 minutes in cultures grown in chondrogenic medium for 14 d. Oil Red O (Sigma-Aldrich) staining was performed for 15 min on cultures grown in adipogenic medium for 7 d. For in vivo analysis, endothelial cells were labeled with fluorescent quantum dots using the Qtracker 525 Cell Labeling Kit (Invitrogen). Cells were treated in culture to induce EndMT then absorbed into OPLA polylactic acid scaffolds (BD Biosciences). Scaffolds were surgically implanted subcutaneously into immunodeficient nude mice (Nu/Nu strain; Charles River Laboratories). Local injection of StemPro differentiation medium (described above) was performed in the area of the implants every 72 h for 6 weeks. Scaffolds were cryosectioned and stained with Alizarin Red, Alcian Blue, or Oil Red O as described above. All procedures were reviewed and approved by the Institutional Animal Care and Use Committee at Harvard Medical School.
as §2

HUVECs = experiment: Assessment of EndMT inhibitors (immunoblotting); format: cell-based, human; details: dorsomorphin 5 μM, BMP7 10 ng ml−1, VEGF 25 ng ml−1; for TGF-β2-induced changes in CD31, FSP-1 and CD44 expression (immunoblots): HUVECs
Procedure: Human umbilical vein endothelial cells (HUVEC) and human cutaneous microvascular endothelial cells (HCMEC) isolated as previously described (35). Cells were tested for purity and found to express no markers for lymphatic endothelial cells or stromal cells (pericytes, smooth muscle cells, etc.) (36). This was reconfirmed by flow cytometry analysis (data not shown). Clonal populations were isolated with PYREX 8×8 mm cloning cylinders (Corning) and shown to respond in a manner identical to that of the cultures used for our experiments (FIG. 25B-D). Cells were grown in culture using EGM-2 medium (Cambrex), containing 10% FBS and 1% Penicillin/Streptomycin, followed by human endothelial serum free medium (Gibco) 24 h prior to all experimental conditions. Bone marrow derived mesenchymal stem cells (ScienCell Research Laboratories) were grown in mesenchymal stem cell medium (ScienCell Research Laboratories). Bone marrow derived hematopoietic stem cells (Lonza) were grown in HPGM medium (Lonza). Human corneal fibroblasts, from a stock provided by Dr. Elizabeth Hay (Harvard Medical School), were grown in RPMI medium, containing 10% FBS and 1% Penicillin/Streptomycin. Primary human osteoblasts, chondrocytes, and adipocytes and their respective growth media were obtained from Cell Applications, Inc. […] Recombinant VEGF (R&D Systems) was added to cultures at a concentration of 25 ng ml^-1. Dorsomorphin (Sigma-Aldrich) was added to cultures at a concentration of 5 μM. All experiments for this study were performed at minimum in triplicate. Immunoassays were performed using the following antibodies at concentrations (and using protocols) recommended by the respective manufacturers: […] Stressgen), phospho-Smad2 (3101), Smad2 (3122), phospho-Smad5 (9516), Smad5 (9517; […] Santa Cruz Biotechnology), osterix (ab22552), adiponectin (ab22554), N-cadherin (ab76057), NG2 (ab83508), vWF (ab68545; Abcam); CD31 (IR610; Dako), […]; GenScript); α-SMA ([…]), β-actin (A1978; Sigma-Aldrich). Samples were run with Criterion precast SDS-PAGE Gels (Bio-Rad). […] TrueBlot IgG beads (eBioscience) were used for immunoprecipitation experiments. AlexaFluor secondary antibodies (Invitrogen) were used at a dilution of 1:200. Images were acquired using a Nikon 80i fluorescence microscope.

EndMT = details: references 30, 31; cited from earlier work
ALK2 with ALK5 = target: T1, ALK2 with ALK5 (Homo sapiens, UniProt Q04771); experiment: Interaction of ALK2 with ALK5: immunoprecipitation of ALK2, immunoblotting for ALK5; format: cell-based; details: 10 ng ml−1, 15 min
T1 construct: endogenous in cells; host or cells: HUVEC
T1 sequence (Q04771 21-509): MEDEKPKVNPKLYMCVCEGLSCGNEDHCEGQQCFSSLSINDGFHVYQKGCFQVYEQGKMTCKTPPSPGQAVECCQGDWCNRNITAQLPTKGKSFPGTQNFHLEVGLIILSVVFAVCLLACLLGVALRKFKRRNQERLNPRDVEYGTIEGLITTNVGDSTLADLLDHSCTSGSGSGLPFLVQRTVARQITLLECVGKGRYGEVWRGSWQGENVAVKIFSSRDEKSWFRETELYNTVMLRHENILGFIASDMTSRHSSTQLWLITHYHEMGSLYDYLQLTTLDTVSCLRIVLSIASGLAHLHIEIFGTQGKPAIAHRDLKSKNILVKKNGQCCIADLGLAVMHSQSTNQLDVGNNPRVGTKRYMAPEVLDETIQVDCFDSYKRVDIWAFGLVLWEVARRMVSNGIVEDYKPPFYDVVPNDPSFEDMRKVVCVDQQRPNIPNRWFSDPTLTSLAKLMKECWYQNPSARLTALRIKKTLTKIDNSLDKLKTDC
Procedure: Human umbilical vein endothelial cells (HUVEC) and human cutaneous microvascular endothelial cells (HCMEC) isolated as previously described (35). Cells were tested for purity and found to express no markers for lymphatic endothelial cells or stromal cells (pericytes, smooth muscle cells, etc.) (36). This was reconfirmed by flow cytometry analysis (data not shown). Clonal populations were isolated with PYREX 8×8 mm cloning cylinders (Corning) and shown to respond in a manner identical to that of the cultures used for our experiments (FIG. 25B-D). Cells were grown in culture using EGM-2 medium (Cambrex), containing 10% FBS and 1% Penicillin/Streptomycin, followed by human endothelial serum free medium (Gibco) 24 h prior to all experimental conditions. Bone marrow derived mesenchymal stem cells (ScienCell Research Laboratories) were grown in mesenchymal stem cell medium (ScienCell Research Laboratories). Bone marrow derived hematopoietic stem cells (Lonza) were grown in HPGM medium (Lonza). Human corneal fibroblasts, from a stock provided by Dr. Elizabeth Hay (Harvard Medical School), were grown in RPMI medium, containing 10% FBS and 1% Penicillin/Streptomycin. Primary human osteoblasts, chondrocytes, and adipocytes and their respective growth media were obtained from Cell Applications, Inc. […] Recombinant VEGF (R&D Systems) was added to cultures at a concentration of 25 ng ml^-1. Dorsomorphin (Sigma-Aldrich) was added to cultures at a concentration of 5 μM. All experiments for this study were performed at minimum in triplicate. Immunoassays were performed using the following antibodies at concentrations (and using protocols) recommended by the respective manufacturers: […] Stressgen), phospho-Smad2 (3101), Smad2 (3122), phospho-Smad5 (9516), Smad5 (9517; […] Santa Cruz Biotechnology), osterix (ab22552), adiponectin (ab22554), N-cadherin (ab76057), NG2 (ab83508), vWF (ab68545; Abcam); CD31 (IR610; Dako), […]; GenScript); α-SMA ([…]), β-actin (A1978; Sigma-Aldrich). […] Images were acquired using a Nikon 80i fluorescence microscope.

Smad2 and Smad5 = experiment: Smad phosphorylation by immunoblotting; format: cell-based, human; details: HUVECs, 10 ng ml−1, 1 h
Procedure: Human umbilical vein endothelial cells (HUVEC) and human cutaneous microvascular endothelial cells (HCMEC) were provided by J. Bischoff (Children's Hospital Boston) and isolated as previously described^35. […] Cells were grown in culture using EGM-2 medium (Cambrex), containing 10% FBS and 1% Penicillin/Streptomycin, followed by human endothelial serum free medium (Gibco) 24 hours prior to all experimental conditions. Bone marrow derived mesenchymal stem cells (ScienCell Research Laboratories) were grown in mesenchymal stem cell medium (ScienCell Research Laboratories). Human corneal fibroblasts, from a stock initially provided by E. Hay (Harvard Medical School), were grown in RPMI medium, containing 10% FBS and 1% Penicillin/Streptomycin. Primary human osteoblasts, chondrocytes, and adipocytes and their respective growth media were obtained from Cell Applications Inc. Recombinant TGF-β2 and BMP4 proteins (R&D Systems) were added to the serum free culture medium for all relevant experiments at a concentration of 10 ng/mL. Cells were treated for 15 minutes to assess ALK2 phosphorylation, 1 hour to measure Smad5 phosphorylation, or 48 hours to induce EndMT. All experiments for this study were performed at minimum in triplicate.
Immunoassays were performed using the following antibodies at concentrations (and using protocols) recommended by the respective manufacturers: FSP-1 (H00006275-M01; Stressgen), ALK2 (sc-5671), Phospho-tyrosine (sc-7020), VE-cadherin (sc-6458), TIE2 (sc-324, sc-9026), STRO-1 (sc-47733), CD44 (sc-71220), CD90 (sc-9163), Osteocalcin (sc-74495, sc-23790), SOX9 (sc-20095), COL2A1 (sc-59958, sc-52658), PPARγ2 (sc-22022; Santa Cruz Biotechnology), vWF (ab68545; Abcam); His (A00174; GenScript); α-SMA (A5228), β-actin (A1978; Sigma-Aldrich). Samples were run with Criterion precast SDS-PAGE Gels (Bio-Rad). HRP-conjugated IgG TrueBlot reagents (18-8814, 18-8816, 18-8817; eBioscience) were used at a dilution of 1:1000. TrueBlot IgG beads (eBioscience) were used for immunoprecipitation experiments. Alexa Fluor secondary antibodies (Invitrogen) were used at a dilution of 1:200. Images were acquired using a Nikon 80i fluorescence microscope.
Human umbilical vein endothelial cells (HUVEC) and human cutaneous microvascular endothelial cells (HCMEC) isolated as previously described (35). […] Cells were grown in culture using EGM-2 medium (Cambrex), containing 10% FBS and 1% Penicillin/Streptomycin, followed by human endothelial serum free medium (Gibco) 24 h prior to all experimental conditions. Bone marrow derived mesenchymal stem cells (ScienCell Research Laboratories) were grown in mesenchymal stem cell medium (ScienCell Research Laboratories). Bone marrow derived hematopoietic stem cells (Lonza) were grown in HPGM medium (Lonza). Human corneal fibroblasts, from a stock provided by Dr. Elizabeth Hay (Harvard Medical School), were grown in RPMI medium, containing 10% FBS and 1% Penicillin/Streptomycin. Primary human osteoblasts, chondrocytes, and adipocytes and their respective growth media were obtained from Cell Applications, Inc. Recombinant TGF-β2, BMP4, and BMP7 proteins (R&D Systems) were added to the serum free culture medium for all relevant experiments at a concentration of 10 ng ml^−1. Recombinant VEGF (R&D Systems) was added to cultures at a concentration of 25 ng ml^−1. Dorsomorphin (Sigma-Aldrich) was added to cultures at a concentration of 5 μM.

[2] = siRNA 24 hours, then TGF-β2 or BMP4 48 hours
[3] = siRNA transfected, osteogenic medium 7 days

## ALK2 siRNA: 27 mer siRNA duplex 5'-GCAACACUGUCCAUUCUUCUUAACCAG-3′ (SEQ ID NO: 51/56) (chemistry not fully specified)
ALK2
  ALK2 expression (immunoblotting): complete inhibition
[1]; HUVECs, ALK-specific siRNA
  TGF-β2- or BMP4-induced decrease in VE-cadherin and increase in CD44 expression (ELISA): inhibited
[1]; siRNA 24 h, then TGF-β2 or BMP4 48 h
  TGF-β2- or BMP4-induced increases in FSP-1 and STRO-1 expression (immunoblotting): blocked these increases
[1]; [2]
  TGF-β2- or BMP4-induced STRO-1 expression (immunoblotting): prevented TGF-β2- or BMP4-induced increases
  TGF-β2- or BMP4-induced increase in FSP-1 expression (immunoblotting): completely blocked these increases
  cells expressing FSP-1 after TGF-β2 or BMP4 (flow cytometry): very few cells expressing FSP-1
[1]; [3]
  TGF-β2- or BMP4-induced increases in osteocalcin and osterix expression (real-time quantitative PCR): prevented these increases
  alkaline phosphatase staining of TGF-β2 or BMP4 treated cultures: no positive staining and none

## VEGF
HUVECs
  TGF-β2-induced changes in CD31, FSP-1 and CD44 expression (immunoblots): inhibition of TGF-β2-induced decreases in CD31 and increases in FSP-1 and CD44 expression
  effect on EndMT (inhibitor): inhibitors of EndMT
EndMT
  effect on EndMT: inhibit EndMT

B1: BMP7: Recombinant BMP7 protein (R&D Systems), ALK2 activating ligand that inhibits EndMT (protein)
chain: STGSKQRSQNRSKTPKNQEALRMANVAENSSSDQRQACKKHELYVSFRDLGWQDWIIAPEGYAAYYCEGECAFPLNSYMNATNHAIVQTLVHFINPETVPKPCCAPTQLNAISVLYFDDSSNVILKKYRNMVVRACGCH
HUVECs
  TGF-β2-induced changes in CD31, FSP-1 and CD44 expression (immunoblots): inhibition of TGF-β2-induced decreases in CD31 and increases in FSP-1 and CD44 expression
  effect on EndMT (inhibitor): inhibits EndMT; also recorded: inhibitors of EndMT
ALK2 with ALK5
  ALK5 in ALK2 immunoprecipitates: No interaction of ALK2 and ALK5
Smad2 and Smad5
  phosphorylation of Smad2 and Smad5 (immunoblotting): stimulated phosphorylation of only Smad5
